Measurements taken from ChEMBL document CHEMBL1909046, “DrugMatrix in vitro pharmacology data”.

Tests used:
[1] = DRUGMATRIX: ATPase, Na+/K+ enzyme inhibition (substrate: ATP); format: tissue-based, Sus scrofa, Heart; conditions: Not Active = under 50% inhibition at 10 µM
Calcitonin receptor = biological target: T1, Calcitonin receptor (Homo sapiens, UniProt P30988); format: cell membranes, Membrane; conditions: t47d; note: in other assays of this panel Not Active means under 50% inhibition at 10 µM
T1 sequence (P30988 whole entry): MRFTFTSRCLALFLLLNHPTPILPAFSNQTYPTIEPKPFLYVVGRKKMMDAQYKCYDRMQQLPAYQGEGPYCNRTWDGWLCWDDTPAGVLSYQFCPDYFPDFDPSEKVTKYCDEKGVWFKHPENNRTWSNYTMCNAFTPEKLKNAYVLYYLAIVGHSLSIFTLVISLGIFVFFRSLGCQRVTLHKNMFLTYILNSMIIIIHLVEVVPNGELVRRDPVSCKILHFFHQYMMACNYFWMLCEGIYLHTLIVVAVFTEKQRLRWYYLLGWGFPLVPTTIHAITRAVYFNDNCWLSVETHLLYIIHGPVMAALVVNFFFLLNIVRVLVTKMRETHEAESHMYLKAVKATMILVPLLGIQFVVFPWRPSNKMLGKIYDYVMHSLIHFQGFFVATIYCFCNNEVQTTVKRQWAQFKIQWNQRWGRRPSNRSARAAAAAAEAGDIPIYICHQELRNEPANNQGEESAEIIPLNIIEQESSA

[2] = DRUGMATRIX: Calcium Channel Type L, Benzothiazepine radioligand binding (ligand: [3H] Diltiazem); format: cell membranes, Rattus norvegicus, Wistar, Brain, Membrane; conditions: Not Active = under 50% inhibition at 10 µM
[3] = biological target: C-C chemokine receptor type 5 (Homo sapiens, UniProt P51681); format: cell membranes, Membrane; conditions: hek293; note: in other assays of this panel Not Active means under 50% inhibition at 10 µM
Leukotriene C4 synthase = biological target: T2, Leukotriene C4 synthase (Cavia porcellus, UniProt A6XA80); format: tissue-based, Lung;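 note: enzyme inhibition assay of leukotriene C4 synthase, using LTA4 as the substrate; in other assays of this panel Not Active means under 50% inhibition at 10 µM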
T2 sequence (A6XA80 whole entry): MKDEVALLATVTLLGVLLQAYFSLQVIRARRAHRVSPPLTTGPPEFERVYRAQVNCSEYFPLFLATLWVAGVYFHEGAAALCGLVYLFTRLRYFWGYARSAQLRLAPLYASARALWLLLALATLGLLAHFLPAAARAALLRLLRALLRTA

[4] = biological target: T3, Receptor-type tyrosine-protein phosphatase C (Homo sapiens, UniProt P08575); parameters: species or system Escherichia coli;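 note: inhibition of CD45 enzyme activity measured using DiFMUP as substrate; in other assays of this panel Not Active means under 50% inhibition at 10 µM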
T3 sequence (P08575 whole entry): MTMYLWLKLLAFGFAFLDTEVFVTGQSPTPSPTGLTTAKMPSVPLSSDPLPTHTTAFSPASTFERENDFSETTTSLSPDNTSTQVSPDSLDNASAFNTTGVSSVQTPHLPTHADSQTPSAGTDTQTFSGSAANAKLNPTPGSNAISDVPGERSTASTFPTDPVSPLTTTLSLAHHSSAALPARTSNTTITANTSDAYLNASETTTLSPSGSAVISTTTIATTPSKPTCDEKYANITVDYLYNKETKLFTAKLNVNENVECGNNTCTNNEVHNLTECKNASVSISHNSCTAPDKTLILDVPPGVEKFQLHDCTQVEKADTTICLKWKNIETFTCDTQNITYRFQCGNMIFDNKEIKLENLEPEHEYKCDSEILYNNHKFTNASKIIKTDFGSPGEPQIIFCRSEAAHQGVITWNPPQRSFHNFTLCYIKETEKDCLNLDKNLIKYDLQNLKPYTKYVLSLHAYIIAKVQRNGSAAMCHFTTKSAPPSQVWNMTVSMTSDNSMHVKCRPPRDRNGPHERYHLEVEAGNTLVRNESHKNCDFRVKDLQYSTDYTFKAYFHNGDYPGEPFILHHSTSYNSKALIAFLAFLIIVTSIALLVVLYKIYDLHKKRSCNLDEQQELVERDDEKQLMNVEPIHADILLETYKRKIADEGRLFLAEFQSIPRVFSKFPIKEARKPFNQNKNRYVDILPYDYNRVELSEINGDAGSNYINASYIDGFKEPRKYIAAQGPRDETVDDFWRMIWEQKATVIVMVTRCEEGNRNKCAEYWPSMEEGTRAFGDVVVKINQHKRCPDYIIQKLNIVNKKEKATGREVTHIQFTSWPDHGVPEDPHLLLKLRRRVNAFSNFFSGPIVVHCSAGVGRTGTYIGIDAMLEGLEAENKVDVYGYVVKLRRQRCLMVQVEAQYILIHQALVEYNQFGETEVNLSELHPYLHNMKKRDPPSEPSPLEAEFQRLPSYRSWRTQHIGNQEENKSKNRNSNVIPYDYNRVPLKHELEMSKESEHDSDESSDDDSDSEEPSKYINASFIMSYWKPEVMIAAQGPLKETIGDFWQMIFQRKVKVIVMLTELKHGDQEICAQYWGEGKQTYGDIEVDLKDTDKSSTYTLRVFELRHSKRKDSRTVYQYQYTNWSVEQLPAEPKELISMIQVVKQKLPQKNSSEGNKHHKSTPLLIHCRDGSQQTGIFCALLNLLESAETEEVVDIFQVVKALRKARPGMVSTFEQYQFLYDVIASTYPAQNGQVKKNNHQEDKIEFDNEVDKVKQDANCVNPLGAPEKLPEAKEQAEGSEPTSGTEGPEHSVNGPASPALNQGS

[5] = DRUGMATRIX: Purinergic P2X radioligand binding (ligand: [3H] alpha, beta-Methylene-ATP); format: cell membranes, Oryctolagus cuniculus, New Zealand albino, Urinary bladder, Membrane; conditions: Not Active = under 50% inhibition at 10 µM
Cytochrome P450 2C9 = Cytochrome P450 2C9 (Homo sapiens, UniProt P11712); conditions: bti-tn-5b1-4; note: in other assays of this panel Not Active means under 50% inhibition at 10 µM
Cytochrome P450 2C9, sequence (P11712 whole entry): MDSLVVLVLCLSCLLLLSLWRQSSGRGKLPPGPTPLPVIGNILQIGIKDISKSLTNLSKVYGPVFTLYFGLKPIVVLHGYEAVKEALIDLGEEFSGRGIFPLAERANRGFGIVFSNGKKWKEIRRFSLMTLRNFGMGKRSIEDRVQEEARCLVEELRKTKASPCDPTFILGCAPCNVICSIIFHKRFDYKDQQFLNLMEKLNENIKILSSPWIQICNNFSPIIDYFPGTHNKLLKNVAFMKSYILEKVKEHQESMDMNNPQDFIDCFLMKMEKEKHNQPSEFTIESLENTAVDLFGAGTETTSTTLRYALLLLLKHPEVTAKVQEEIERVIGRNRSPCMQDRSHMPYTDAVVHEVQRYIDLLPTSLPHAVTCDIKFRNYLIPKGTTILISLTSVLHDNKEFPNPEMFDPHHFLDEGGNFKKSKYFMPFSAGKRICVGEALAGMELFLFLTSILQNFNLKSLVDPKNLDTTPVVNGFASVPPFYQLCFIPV

C-C chemokine receptor type 5, sequence (P51681 whole entry): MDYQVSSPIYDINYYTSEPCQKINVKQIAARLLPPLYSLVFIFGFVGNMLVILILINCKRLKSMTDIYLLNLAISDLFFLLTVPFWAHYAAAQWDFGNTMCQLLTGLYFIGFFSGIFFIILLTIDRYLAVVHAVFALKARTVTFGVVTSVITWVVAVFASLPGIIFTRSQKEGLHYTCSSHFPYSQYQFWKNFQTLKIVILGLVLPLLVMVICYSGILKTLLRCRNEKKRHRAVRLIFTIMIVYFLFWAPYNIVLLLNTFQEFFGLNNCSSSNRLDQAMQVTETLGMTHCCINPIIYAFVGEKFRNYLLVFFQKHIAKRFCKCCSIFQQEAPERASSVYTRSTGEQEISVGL

CC[C@@]1(O)C[C@H](O[C@H]2C[C@H](N(C)C)[C@H](O[C@H]3C[C@H](O)[C@H](O[C@H]4CCC(=O)[C@H](C)O4)[C@H](C)O3)[C@H](C)O2)c2c(cc3c(c2O)C(=O)c2c(O)cccc2C3=O)[C@H]1C(=O)OC [ACLARUBICIN]
Not Active: IC50 [1] | Ki [1] | IC50 (Calcitonin receptor) | IC50 [2] | Ki [2] | IC50 [3] | IC50 (Leukotriene C4 synthase) | IC50 [4] | IC50 [5] | Ki [5] | IC50 (Cytochrome P450 2C9) | Ki (Cytochrome P450 2C9)

CCn1cc(C(=O)O)c(=O)c2cc(F)c(N3CCNCC3)cc21 [NORFLOXACIN]
Not Active: IC50 [1] | Ki [1] | IC50 (Calcitonin receptor) | IC50 [2] | Ki [2] | IC50 [3] | IC50 (Leukotriene C4 synthase) | IC50 [4] | IC50 [5] | Ki [5] | IC50 (Cytochrome P450 2C9) | Ki (Cytochrome P450 2C9)

Cc1c(O)c(=O)ccn1C [DEFERIPRONE]
Not Active: IC50 [1] | Ki [1] | IC50 (Calcitonin receptor) | IC50 [2] | Ki [2] | IC50 [3] | IC50 (Leukotriene C4 synthase) | IC50 [4] | IC50 [5] | Ki [5] | IC50 (Cytochrome P450 2C9) | Ki (Cytochrome P450 2C9)

NC1=NC(=O)C(c2ccccc2)O1 (configuration not stated) [PEMOLINE]
Not Active: IC50 [1] | Ki [1] | IC50 (Calcitonin receptor) | IC50 [2] | Ki [2] | IC50 [3] | IC50 (Leukotriene C4 synthase) | IC50 [4] | IC50 [5] | Ki [5] | IC50 (Cytochrome P450 2C9) | Ki (Cytochrome P450 2C9)

Sc1ncnc2nc[nH]c12 [MERCAPTOPURINE ANHYDROUS]
Not Active: IC50 [1] | Ki [1] | IC50 (Calcitonin receptor) | IC50 [2] | Ki [2] | IC50 [3] | IC50 (Leukotriene C4 synthase) | IC50 [4] | IC50 [5] | Ki [5] | IC50 (Cytochrome P450 2C9) | Ki (Cytochrome P450 2C9)

COCCc1ccc(OCC(O)CNC(C)C)cc1 (configuration not stated) [METOPROLOL]
Not Active: IC50 [1] | Ki [1] | IC50 (Calcitonin receptor) | IC50 [2] | Ki [2] | IC50 [3] | IC50 (Leukotriene C4 synthase) | IC50 [4] | IC50 [5] | Ki [5] | IC50 (Cytochrome P450 2C9) | Ki (Cytochrome P450 2C9)

O=c1[nH]c(=O)n([C@H]2C[C@H](O)[C@@H](CO)O2)cc1I [IDOXURIDINE]
Not Active: IC50 [1] | Ki [1] | IC50 (Calcitonin receptor) | IC50 [2] | Ki [2] | IC50 [3] | IC50 (Leukotriene C4 synthase) | IC50 [4] | IC50 [5] | Ki [5] | IC50 (Cytochrome P450 2C9) | Ki (Cytochrome P450 2C9)

CNNCc1ccc(C(=O)NC(C)C)cc1 [PROCARBAZINE]
Not Active: IC50 [1] | Ki [1] | IC50 (Calcitonin receptor) | IC50 [2] | Ki [2] | IC50 [3] | IC50 (Leukotriene C4 synthase) | IC50 [4] | IC50 [5] | Ki [5] | IC50 (Cytochrome P450 2C9) | Ki (Cytochrome P450 2C9)

CC(C)C(=O)Nc1ccc([N+](=O)[O-])c(C(F)(F)F)c1 [FLUTAMIDE]
Not Active: IC50 [1] | Ki [1] | IC50 (Calcitonin receptor) | IC50 [2] | Ki [2] | IC50 [3] | IC50 (Leukotriene C4 synthase) | IC50 [4] | IC50 [5] | Ki [5] | IC50 (Cytochrome P450 2C9) | Ki (Cytochrome P450 2C9)

LEAD (II) ACETATE
Not Active: IC50 [1] | Ki [1] | IC50 (Calcitonin receptor) | Ki (Calcitonin receptor) | IC50 [2] | Ki [2] | IC50 [3] | Ki [3] | IC50 (Leukotriene C4 synthase) | Ki (Leukotriene C4 synthase) | IC50 [4] | Ki [4] | IC50 [5] | Ki [5] | IC50 (Cytochrome P450 2C9) | Ki (Cytochrome P450 2C9)

C[C@H]1c2cccc(O)c2C(=O)C2=C(O)[C@]3(O)C(=O)C(C(N)=O)=C(O)[C@@H](N(C)C)[C@@H]3[C@@H](O)[C@@H]21.O [DOXYCYCLINE]
Not Active: IC50 [1] | Ki [1] | IC50 (Calcitonin receptor) | IC50 [2] | Ki [2] | IC50 [3] | IC50 (Leukotriene C4 synthase) | IC50 [4] | IC50 [5] | Ki [5] | IC50 (Cytochrome P450 2C9) | Ki (Cytochrome P450 2C9)

COc1ccc(C[C@H]2NC[C@H](O)[C@H]2OC(C)=O)cc1 [ANISOMYCIN]
Not Active: IC50 [1] | Ki [1] | IC50 (Calcitonin receptor) | Ki (Calcitonin receptor) | IC50 [2] | Ki [2] | IC50 [3] | Ki [3] | IC50 (Leukotriene C4 synthase) | Ki (Leukotriene C4 synthase) | IC50 [4] | Ki [4] | IC50 [5] | Ki [5] | IC50 (Cytochrome P450 2C9) | Ki (Cytochrome P450 2C9)
